# Test results: US20020052377A1, “Method for treating angina” (priority 2000, published 2002)
# Where two headings read alike, the source gives them in different places.
# Key:
# [1] = tested on: regional myocardial ischemia and reperfusion; experiment: Rat model of regional myocardial ischemia and reperfusion (LAD-occlusion); type: in vivo, Male Wistar rats; settings: LAD-occlusion 25 min, reperfusion 2 h, bolus 10 mg/kg + infusion 96. mg/kg/h from 30 min before occlusion, mean±SEM, n=12
# Experimental: The aim of this study was to investigate whether ranolazine exerts beneficial effects in a rat model of regional myocardial ischemia and reperfusion. Methods: Male Wistar rats were subjected to no LAD-occlusion (sham) or LAD-occlusion (25 min) and reperfusion (2 h). Saline (bolus: 2.4 mL/kg+infusion: 24. mL/kg/h) or ranolazine (bolus: 10 mg/kg +infusion; 96. mg/kg/h) were infused 30 min before LAD-occlusion and throughout the experiment. At the end of the experiment area at risk (AR, % of left ventricle), infarct size (IS, % of AR), and plasma cardiac troponin T (cTnT, ng/mL) were determined. The following groups were studied: Group 1. sham saline (n=4), Group 2. saline control (n=12), Group 3. ranolazine (n=12).
# [2] = Peak and trough ranolazine plasma concentrations, IR regimens (Example 3); type: in vivo; settings: human, oral
# Experimental: In this Example, the safety and anti-ischemic effects of high plasma ranolazine levels in a large group of angina patients was evaluated and the duration of any effects during steady-state dosing with bid and tid regimens was assessed. In this Example, patients with chronic stable angina pectoris who were responsive to conventional antianginal drugs were treated with 3 ranolazine.2HCl dosing regimens: 267 mg tid, 400 mg bid and 400 mg tid IR Formulations of Example 1. Exercise testing parameters and ranolazine free base concentrations were determined at peak and trough plasma levels.
# After each 1 week period, patients returned to the exercise laboratory in the morning, at least 1 hour after a light breakfast, for an ETT. This was designated the trough ETT; the trough ETTs were performed at the same time of day for each patient. After completing the trough ETT, the patient received the next scheduled blinded medication dose from the blister pack used that week. Another ETT was performed 1 hour after the administered dose. This was designated the peak ETT. Blood samples were obtained at trough (approximately 8 hours after dosing) and at peak (1 hour after dosing). Other standard laboratory tests were monitored regularly throughout the study.
# [3] = tested on: patients with chronic angina, with or without history of heart failure; experiment: MARISA exercise duration, patients with or without history of heart failure (HF); type: in vivo, human
# Experimental: This Example evaluates the effectiveness of ranolazine (Ran) in human patients with chronic angina and a history of heart failure. The […] (Monotherapy Assessment of Ranolazine In Stable Angina) study randomized patients to Ran (500 mg, 1000 mg and 1500 mg bid) and placebo in a double-blind, 4 period, crossover design study. […] All patients performed a modified Bruce exercise test at the time of trough (morning) and peak (afternoon) drug levels on each treatment.
# [4] = tested on: patients with stable angina; experiment: MARISA exercise testing (modified Bruce protocol), sustained release ranolazine; type: in vivo, human
# Experimental: is the first study of sustained release ranolazine (SR) in stable angina. Methods: Patients withdrawn from other anti-anginal drugs with reproducible angina-limited exercise duration and ≧1 mm ST depression were randomized to Ran (500 mg bid, 1000 mg bit and 1500 mg bid) and matching placebo (Pbo) in a double-blind, four-period, Latin square crossover design. Exercise testing with a modified Bruce protocol was performed at both trough (12 hr after dosing) and peak (4 hr after dosing). Results: 49 centers in the USA, Czech Republic, Poland and Canada randomized 191 patients. 168 completed all 4 double-blind treatment periods; 7 more completed 3 of 4 periods.
smiles,measurement,setting,value
"COc1ccccc1OCC(O)CN1CCN(CC(=O)Nc2c(C)cccc2C)CC1 (racemic) [Ranolazine, (±)-N-(2,6-dimethylphenyl)-4-[2-hydroxy-3-(2-methoxyphenoxy)propyl]-1-piperazine-acetamide]",area at risk (AR),[1],48±1 % of left ventricle
same,infarct size (IS),[1],41±4 % of AR
same,plasma cardiac troponin T (cTnT),[1],12 ± 2 ng/mL
same,concentration at 1 h,"[2]; female, 267 mg, Females, IR 267 mg tid, read-out: Ranolazine Plasma Concentration, Peak, mean (SD)",1590 ng/mL
same,concentration at 8 h,"[2]; female, 267 mg, Females, IR 267 mg tid, read-out: Ranolazine Plasma Concentration, Trough, mean (SD)",316 ng/mL
same,concentration at 1 h,"[2]; female, 400 mg, Females, IR 400 mg bid, read-out: Ranolazine Plasma Concentration, Peak, mean (SD)",2170 ng/mL
same,concentration at 8 h,"[2]; female, 400 mg, Females, IR 400 mg bid, read-out: Ranolazine Plasma Concentration, Trough, mean (SD)",235 ng/mL
same,concentration at 1 h,"[2]; female, 400 mg, Females, IR 400 mg tid, read-out: Ranolazine Plasma Concentration, Peak, mean (SD)",2650 ng/mL
same,concentration at 8 h,"[2]; female, 400 mg, Females, IR 400 mg tid, read-out: Ranolazine Plasma Concentration, Trough, mean (SD)",505 ng/mL
same,concentration at 1 h,"[2]; 267 mg, All Patients, IR 267 mg tid, read-out: Ranolazine Plasma Concentration, Peak, mean (SD)",1350 ng/mL
same,concentration at 8 h,"[2]; 267 mg, All Patients, IR 267 mg tid, read-out: Ranolazine Plasma Concentration, Trough, mean (SD)",316 ng/mL
same,concentration at 1 h,"[2]; 400 mg, All Patients, IR 400 mg bid, read-out: Ranolazine Plasma Concentration, Peak, mean (SD)",1880 ng/mL
same,concentration at 8 h,"[2]; 400 mg, All Patients, IR 400 mg bid, read-out: Ranolazine Plasma Concentration, Trough, mean (SD)",235 ng/mL
same,concentration at 1 h,"[2]; 400 mg, All Patients, IR 400 mg tid, read-out: Ranolazine Plasma Concentration, Peak, mean (SD)",2130 ng/mL
same,concentration at 8 h,"[2]; 400 mg, All Patients, IR 400 mg tid, read-out: Ranolazine Plasma Concentration, Trough, mean (SD)",514 ng/mL
same,concentration at 8 h,"[2]; across the 3 IR dosing regimens, read-out: Mean trough ranolazine plasma concentrations",235 to 514 ng/mL
same,concentration at 1 h,"[2]; across the 3 IR dosing regimens, read-out: plasma mean peak concentrations, ranolazine free base",1350 to 2130 ng/mL
same,concentration at 1 h,"[2]; male, 267 mg, Males, IR 267 mg tid, read-out: Ranolazine Plasma Concentration, Peak, mean (SD)",1260 ng/mL
same,concentration at 8 h,"[2]; male, 267 mg, Males, IR 267 mg tid, read-out: Ranolazine Plasma Concentration, Trough, mean (SD)",316 ng/mL
same,concentration at 1 h,"[2]; male, 400 mg, Males, IR 400 mg bid, read-out: Ranolazine Plasma Concentration, Peak, mean (SD)",1760 ng/mL
same,concentration at 8 h,"[2]; male, 400 mg, Males, IR 400 mg bid, read-out: Ranolazine Plasma Concentration, Trough, mean (SD)",235 ng/mL
same,concentration at 1 h,"[2]; male, 400 mg, Males, IR 400 mg tid, read-out: Ranolazine Plasma Concentration, Peak, mean (SD)",1920 ng/mL
same,concentration at 8 h,"[2]; male, 400 mg, Males, IR 400 mg tid, read-out: Ranolazine Plasma Concentration, Trough, mean (SD)",518 ng/mL
same,LS mean ED,"[3]; HF n=29, 500 mg bid, peak",518 s
same,LS mean ED,"[3]; HF n=29, 500 mg bid, trough",512 s
same,LS mean ED,"[3]; HF n=29, 1000 mg bid, peak",520 s
same,LS mean ED,"[3]; HF n=29, 1000 mg bid, trough",514 s
same,LS mean ED,"[3]; HF n=29, 1500 mg bid, peak",545 s
same,LS mean ED,"[3]; HF n=29, 1500 mg bid, trough",524 s
same,LS mean ED,"[3]; No HF n=146, 500 mg bid, peak",538 s
same,LS mean ED,"[3]; No HF n=146, 500 mg bid, trough",539 s
same,LS mean ED,"[3]; No HF n=146, 1000 mg bid, peak",563 s
same,LS mean ED,"[3]; No HF n=146, 1000 mg bid, trough",551 s
same,LS mean ED,"[3]; No HF n=146, 1500 mg bid, peak",564 s
same,LS mean ED,"[3]; No HF n=146, 1500 mg bid, trough",563 s
same,Time to 1 mm ST Depression,"[4]; SR 500 mg bid, peak",479 s
same,Time to Angina,"[4]; SR 500 mg bid, peak",452 s
same,Exercise Duration,"[4]; SR 500 mg bid, peak (4 hr after dosing)",532 s
same,Time to 1 mm ST Depression,"[4]; SR 500 mg bid, trough",470 s
same,Time to Angina,"[4]; SR 500 mg bid, trough",437 s
same,Exercise Duration,"[4]; SR 500 mg bid, trough (12 hr after dosing)",533 s
same,Time to 1 mm ST Depression,"[4]; SR 1000 mg bid, peak",502 s
same,Time to Angina,"[4]; SR 1000 mg bid, peak",474 s
same,Exercise Duration,"[4]; SR 1000 mg bid, peak (4 hr after dosing)",555 s
same,Time to 1 mm ST Depression,"[4]; SR 1000 mg bid, trough",491 s
same,Time to Angina,"[4]; SR 1000 mg bid, trough",457 s
same,Exercise Duration,"[4]; SR 1000 mg bid, trough (12 hr after dosing)",545 s
same,Time to 1 mm ST Depression,"[4]; SR 1500 mg bid, peak",508 s
same,Time to Angina,"[4]; SR 1500 mg bid, peak",487 s
same,Exercise Duration,"[4]; SR 1500 mg bid, peak (4 hr after dosing)",561 s
same,Time to 1 mm ST Depression,"[4]; SR 1500 mg bid, trough",514 s
same,Time to Angina,"[4]; SR 1500 mg bid, trough",472 s
same,Exercise Duration,"[4]; SR 1500 mg bid, trough (12 hr after dosing)",559 s
